Consider twelve compounds from ChEMBL document CHEMBL1201862, “PubChem BioAssay data set” (2004).

Holding throughout (test): NCI tumour cell line growth inhibition, 48 h
Assay [1] relates to CAKI-1.
Assay [2] has as its system CCRF-CEM.
For assay [3], the system named is HCT-15.
Assay [4] concerns K562.
For assay [5], the system named is M14.
For assay [6], the system named is MCF7.
The subject of assay [7] is MDA-MB-231.
Assay [8] has as its system MOLT-4.
Assay [9] relates to NCI-H226.
Assay [10] relates to NCI-H460.
Assay [11] relates to OVCAR-4.
Assay [12] relates to OVCAR-8.
Assay [13] concerns RXF 393.
The subject of assay [14] is SF-539.
Assay [15] deals with SK-MEL-2.
Assay [16] deals with SK-MEL-5.
Assay [17] concerns SK-OV-3.
The test system of assay [18] is UACC-257.
Assay [19] relates to UO-31.
The test system of assay [20] is SR.

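Exposure lasted 48 hours, with cells grown in 96-well plates and compounds tested at five concentrations. At the GI50, growth is halved.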 Activity calls are given as the source filed them. Cut-off read from the data, not from the text of the source: active = GI50 up to about 1.1 µM and inactive = higher.

In the case of `N=c1oc2cc(O)ccc2cc1C(=O)Nc1ccccn1`, the GI50 in [1] was 51.9 µM (inactive); in assay [2] it was 27.8 µM (inactive); in [3], 51.5 µM; in assay [4] it was 26.5 µM (inactive); in [5], 59.7 µM (inactive); in [6], 14.9 µM (inactive). In addition, the GI50 in assay [7] is 54.3 µM (inactive); in [8] it was 1.78 µM (inactive); in [9], 90.6 µM (inactive); in [10], 62.8 µM (inactive); in assay [11], 33 µM (inactive); in [12], 32.2 µM (inactive). Further, the GI50 was 26.6 µM (inactive) in assay [13]; 92.9 µM (inactive) in assay [14]; 28.8 µM (inactive) in assay [15]; 42.3 µM (inactive) in assay [16]; 37.2 µM (inactive) in [17]; > 100 µM (inactive) in [18]. Further, the GI50 in assay [19] was 0.292 µM (active).
For the compound `O=C1CC(C(=O)N2CCCCC2)n2c(=O)n(-c3ccccc3)c(=O)n2C1` (configuration not stated), the GI50 in [1] was > 100 µM (inactive); in assay [3], above 100 µM; in [5], > 100 µM (inactive); in [6] it was > 100 µM (inactive); in assay [7] it was > 100 µM (inactive); in assay [9], > 100 µM (inactive). The GI50 in assay [10], in assay [12], in assay [13], in [14], in assay [16] and in assay [17] was > 100 µM (inactive) throughout. Also, the GI50 in [18] and in [19] was > 100 µM (inactive) throughout.
Consider `NC(=S)N/N=C1\NC(=O)/C(=C/c2ccc3c(c2)OCO3)S1`, for which the GI50 was 25.3 µM (inactive) in assay [1]; 26.7 µM in assay [3]; 24.5 µM (inactive) in assay [5]; 32.7 µM (inactive) in [6]; 25.8 µM (inactive) in [7]; 21.4 µM (inactive) in assay [8]. For the same compound, the GI50 in assay [9] was 23.5 µM (inactive); in [10], 30.8 µM (inactive); in assay [11], 24.3 µM (inactive); in [12], 24.8 µM (inactive); in assay [13], 21.1 µM (inactive); in assay [14], 35.1 µM (inactive). Moreover, the GI50 was 27.2 µM (inactive) in assay [15]; 16.3 µM (inactive) in [16]; 30 µM (inactive) in assay [17]; 31.6 µM (inactive) in assay [18]; 30.1 µM (inactive) in [19].
`CCCCCC(/C=N/Nc1ccccc1)C(O)(C(F)(F)F)C(F)(F)F` (configuration not stated): the GI50 in assay [1] is > 100 µM (inactive); in assay [2], 83.2 µM (inactive); in assay [3], above 100 µM; in assay [4], > 100 µM (inactive); in [5], > 100 µM (inactive); in assay [7] it was > 100 µM (inactive). For the same compound, the GI50 in assay [8] is 61.8 µM (inactive); in assay [9] it was > 100 µM (inactive); in assay [10], > 100 µM (inactive); in [11], > 100 µM (inactive); in [12] it was > 100 µM (inactive); in [13], > 100 µM (inactive). For the same compound, the GI50 in assay [14], in [15], in assay [16], in assay [17], in [20] and in assay [18] was > 100 µM (inactive) throughout. The GI50 in assay [19] is > 100 µM (inactive).
As for `CC(=O)Oc1cc(Cl)c(C)c2c1[C@H]1CC[C@]3(C)[C@@H](OC(C)=O)CC[C@H]3[C@@H]1CC2`, the GI50 was > 100 µM (inactive) in assay [2]; 50.4 µM in assay [3]; 78.5 µM (inactive) in [4]; > 100 µM (inactive) in assay [5]; 83.4 µM (inactive) in assay [6]; > 100 µM (inactive) in assay [7]. The GI50 in assay [8] was 78.2 µM (inactive); in assay [9] it was > 100 µM (inactive); in assay [10], > 100 µM (inactive); in [12], > 100 µM (inactive); in assay [13], 74.8 µM (inactive); in [14], > 100 µM (inactive). Besides, the GI50 in assay [16], in assay [18] and in assay [19] was > 100 µM (inactive) throughout.
Consider `O=C1c2[nH]c3ccccc3c2CCN2CCCCC12` (configuration not stated), for which the GI50 in [1] is 38.2 µM (inactive); in [2] it was 22.6 µM (inactive); in [3], 31.9 µM; in assay [4] it was 23.2 µM (inactive); in assay [5], 17.9 µM (inactive); in assay [6], 32.1 µM (inactive). In addition, the GI50 was 19.2 µM (inactive) in assay [7]; 17.3 µM (inactive) in assay [8]; 27.8 µM (inactive) in assay [9]; 26.6 µM (inactive) in [10]; 27.5 µM (inactive) in assay [11]; 25.2 µM (inactive) in [12]. For the same compound, the GI50 in assay [13] was 24.9 µM (inactive); in assay [14], 21.1 µM (inactive); in assay [15], 18.5 µM (inactive); in [17], 31.1 µM (inactive); in [18] it was 17.7 µM (inactive).
Take `N#CI1OC(C(F)(F)F)(C(F)(F)F)c2ccccc21`: the GI50 in assay [1] is 14.1 µM (inactive); in [2], 18.7 µM (inactive); in [3], 15.1 µM; in [4] it was 12.1 µM (inactive); in assay [5], 19 µM (inactive); in assay [6] it was 18.9 µM (inactive). In addition, the GI50 in assay [7] is 24 µM (inactive); in assay [9] it was 17.8 µM (inactive); in [10], 24.8 µM (inactive); in assay [11], 15.1 µM (inactive); in [12] it was 16.3 µM (inactive); in [13] it was 16.8 µM (inactive). The GI50 was 19.9 µM (inactive) in assay [14]; 16.1 µM (inactive) in assay [15]; 17.5 µM (inactive) in assay [16]; > 100 µM (inactive) in assay [17]; 22.2 µM (inactive) in assay [18]; 14.6 µM (inactive) in assay [19].
For the compound `COc1ccc2[nH]c3c([N+](=O)[O-])ccc(NCCCN(C)C)c3/c(=N/CCCN(C)C)c2c1`, the GI50 in [1] was 2.07 µM (inactive); in assay [2], 0.448 µM (active); in assay [3], 1.53 µM; in assay [4], 1.42 µM (inactive); in [5], > 10 µM (inactive); in assay [6], 0.743 µM (active). The GI50 in assay [7] was 1.5 µM (inactive); in assay [8] it was 0.31 µM (active); in assay [11] it was 0.914 µM (active); in [12] it was 0.893 µM (active); in assay [13], 0.631 µM (active); in assay [16], 1.9 µM (inactive). Further, the GI50 is 2.01 µM (inactive) in assay [17], 0.28 µM (active) in assay [20] and > 10 µM (inactive) in [18].
In the case of `CC(=O)N1CC(C)(C)c2c(C)c(O)c(C)c(C)c21`, the GI50 was > 100 µM (inactive) in assay [2]; above 100 µM in assay [3]; > 100 µM (inactive) in [4]; > 100 µM (inactive) in [5]; > 100 µM (inactive) in assay [6]; > 100 µM (inactive) in assay [7]. Further, the GI50 in [8], in assay [9], in [10], in [11], in assay [12] and in assay [13] was > 100 µM (inactive) in each case. The GI50 in assay [14], in [16], in assay [17], in [18] and in assay [19] was > 100 µM (inactive) each time.
Take `Nc1nc(N)c2c(n1)NC(c1ccccc1)CC(/C=C/c1ccc(Cl)cc1)=N2` (configuration not stated): the GI50 in [1] is 7.87 µM (inactive); in [2] it was 4.84 µM (inactive); in [3], 5.97 µM; in assay [4] it was 2.65 µM (inactive); in [5] it was 11.6 µM (inactive); in [6], 3.48 µM (inactive). The GI50 in assay [7] was 3.23 µM (inactive); in [8], 1.89 µM (inactive); in assay [9] it was 6.64 µM (inactive); in [10], 4.41 µM (inactive); in assay [11] it was 6.41 µM (inactive); in [12], 5.28 µM (inactive). The GI50 in assay [13] is 3.62 µM (inactive); in [14], 15.5 µM (inactive); in assay [15] it was 14.6 µM (inactive); in [16] it was 9.4 µM (inactive); in assay [17] it was 15.7 µM (inactive); in assay [18], 2.25 µM (inactive). For the same compound, in [19], the GI50 is 9.12 µM (inactive).
Take `CN1CCc2c(sc3nc(Nc4ccccc4)n(N)c(=O)c23)C1`: the GI50 in assay [1] was > 100 µM (inactive); in [2], 59.2 µM (inactive); in assay [3], above 100 µM; in assay [4], 37.1 µM (inactive); in [5], 24.1 µM (inactive); in assay [6], 51.4 µM (inactive). Also, the GI50 in [7] was > 100 µM (inactive); in assay [8], 65 µM (inactive); in [9] it was > 100 µM (inactive); in assay [10] it was > 100 µM (inactive); in [12], > 100 µM (inactive); in [13] it was 63.4 µM (inactive). For the same compound, the GI50 in assay [14] is > 100 µM (inactive); in [15], > 100 µM (inactive); in [16] it was 77.3 µM (inactive); in assay [18] it was 60.4 µM (inactive); in assay [19] it was > 100 µM (inactive).
Consider `C=CCOc1ccc(C2c3c(n[nH]c3O)CC(O)(OCC)C2C(=O)OCC)cc1OC` (configuration not stated), for which the GI50 was > 100 µM (inactive) in assay [1]; > 100 µM (inactive) in assay [2]; above 100 µM in [3]; > 100 µM (inactive) in [5]; > 100 µM (inactive) in assay [6]; > 100 µM (inactive) in [7]. In addition, the GI50 in assay [8], in assay [10], in [11], in [12], in [14] and in assay [15] was > 100 µM (inactive) throughout. The GI50 in assay [16], in assay [18] and in [19] was > 100 µM (inactive) throughout.
